Tests used:
OPM-2 Luc cells [1] = experiment: OPM-2 xenograft efficacy model; format: in vivo; conditions: dosed orally to female athymic nude mice inoculated with OPM-2 Luc cells
Experimental: Example 1 was dosed orally to female athymic nude mice inoculated with OPM-2 Luc cells.

OPM-2 Luc cells [2] = experiment: tumor PD model (OPM-2 Luc); format: in vivo; conditions: dosed orally to female athymic nude mice inoculated with OPM-2 Luc cells; compared with Reference Compound 1
Experimental: Both compounds were dosed orally to female athymic nude mice inoculated with OPM-2 Luc cells.

[3] = tested on: human multiple myeloma cell line, OPM-2; experiment: Cell viability assay (OPM-2 10 FBS), CellTiter-Glo; format: cell-based; conditions: read-out: OPM-2 10% FBS IC50 IP; OPM-2 cells, 10% FBS, 16 h incubation
Method in brief: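 IC50 values come from 4-parameter logistic fits of luminescence signals reflecting cell viability. Treatment lasted 16 h at 37 °C in complete medium with 10% FBS, starting from 3000 cells/well.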

[4] = target: recombinant human Mcl-1 (residues 171-327) / Bim interaction (Homo sapiens (Human), UniProt Q07820); experiment: biochemical; format: binding; conditions: 0.1 nM Mcl-1(171-327), 0.05 nM biotin-Bim (51-76); read-out: Mcl-1 HTRF IC50
recombinant human Mcl-1 (residues 171-327) / Bim interaction, sequence (Q07820 171-327): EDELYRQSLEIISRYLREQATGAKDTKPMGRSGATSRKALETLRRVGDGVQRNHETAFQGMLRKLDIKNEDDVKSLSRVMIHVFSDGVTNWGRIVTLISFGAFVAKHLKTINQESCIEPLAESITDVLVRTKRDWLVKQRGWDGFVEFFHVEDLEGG

Compound | in vivo efficacy in an OPM-2 xenograft efficacy model (OPM-2 Luc cells [1]) | in vivo efficacy relative to Reference Compound 1 in a tumor PD model (OPM-2 Luc cells [2]) | IC50 [3] [nM] | IC50 [4] [nM]
CCO[C@]1(CN2CCN3CCOC[C@@H]3C2)/C=C/C[C@H](C)[C@@H](C)S(=O)(=O)NC(=O)c2ccc3c(c2)N(C[C@@H]2CC[C@H]21)C[C@@]1(CCCc2cc(Cl)ccc21)CO3 [Example 1, (1 S,3′R,6′R,7′R,8′E, 11′S,12′R)-6-chloro-7′-ethoxy-7′-((9aS)-hexahydropyrazino[2,1-c][1,4]oxazin-8(1H)-ylmethyl)-11′,12′-dimethyl-3,4-dihydro-2H,15′H-spiro[naphthalene-1,22′-[20]oxa[13]thia[1,14]diazatetracyclo[14.7.2.0-3,6˜.0˜19,24˜]pentacosa[8,16,18,24]tetraen]-15′-one 13′,13′-dioxide] | in vivo efficacy | superior in vivo efficacy | 85 | 0.086
CO[C@]1(CN2CCN(C3COC3)CC2)/C=C/C[C@H](C)[C@@H](C)S(=O)(=O)NC(=O)c2ccc3c(c2)N(C[C@@H]2CC[C@H]21)C[C@@]1(CCCc2cc(Cl)ccc21)CO3 [Example 3, (1 S,3′R,6′R,7′R,8′E,11′S,12′R)-6-chloro-7′-methoxy-11′,12′-dimethyl-7′-((4-(3-oxetanyl)-1-piperazinyl)methyl)-3,4-dihydro-2H, 15′H-spiro[naphthalene-1,22′-[20]oxa[13]thia[1,14]diazatetracyclo[14.7.2.0-3,6˜.0˜19,24˜]pentacosa[8,16,18,24]tetraen]-15′-one 13′,13′-dioxide] | – | superior in vivo efficacy | 60 | 0.094
CO[C@]1(CN2CCN3CCOC[C@@H]3C2)/C=C/C[C@H](C)[C@@H](C)S(=O)(=O)NC(=O)c2ccc3c(c2)N(C[C@@H]2CC[C@H]21)C[C@@]1(CCCc2cc(Cl)ccc21)CO3 [Example 4, (1S,3′R,6′R,7′R,8′E,11′S,12′R)-6-CHLORO-7′-((9AS)-HEXAHYDROPYRAZINO[2,1-C][1,4]OXAZIN-8(1H)-YLMETHYL)-7′-METHOXY-11′,12′-DIMETHYL-3,4-DIHYDRO-2H, 15′H-SPIRO[NAPHTHALENE-1,22′-[20]OXA[13]THIA[1,14]DIAZATETRACYCLO[14.7.2.0-3,6˜.0˜19,24˜]PENT ACOSA[8,16,18,24]TETRAEN]-15′-ONE 13′,13′-DIOXIDE] | in vivo efficacy | superior in vivo efficacy | 94 | 0.116
(1 S,3′R,6′R,7′R,8′E,11′S,12′R)-6-chloro-7′-((9aS)-hexahydropyrazino[2,1-c][1,4]oxazin-8(1H)-ylmethyl)-7′-methoxy-12′-(2-methoxyethyl)-11′-methyl-3,4-dihydro-2H, 15′H-spiro[naphthalene-1,22′-[20]oxa[13]thia[1,14]diazatetracyclo[14.7.2.0-3,6˜.0˜19,24˜]pentacosa[8,16,18,24]tetraen]-15′-one 13′,13′-dioxide [Example 11] | in vivo efficacy | – | 51 | –
(1 S,3′R,6′R,7′S,8′E,11′S, 12′R)-6-chloro-7′-((9aS)-hexahydropyrazino[2,1-c][1,4]oxazin-8(1H)-ylmethyl)-7′-methoxy-11′,12′-dimethyl-3,4-dihydro-2H, 15′H-spiro[naphthalene-1,22′-[20]oxa[13]thia[1,14,25]triazatetracyclo[14.7.2.0-3,6˜.0˜19,24˜]pentacosa[8,16,18,24]tetraen]-15′-one 13′,13′-dioxide [Example 18] | in vivo efficacy | superior in vivo efficacy | 22 | 0.06

From patent publication US10821115B2, “Compounds that inhibit Mcl-1 protein” (priority 2017, dated 2020)
